The numbers were not newly measured in article PMC12910647, “Tumor-Targeted Delivery of an EGFR Inhibitor Prodrug via Site-Specific Albumin Conjugation” (Journal of Medicinal Chemistry, 2026), which cites them from elsewhere.

Details of this series: method as in not given. Particulars: in mice, reported value; ref not given.

Consider `C=CC(=O)Nc1cc(Nc2nccc(-c3cn(C)c4ccccc34)n2)c(OC)cc1N(C)CCN(C)C` [osimertinib], for which the “maximum tolerated dose (MTD)” value is on record as 25 mg/kg.
